We go through 19 molecules from ChEMBL document CHEMBL6153054, “Synthesis and discovery of simplified pleurotin analogs bearing tricyclic core as novel thioredoxin reductase inhibitors” (Eur J Med Chem, 2025).

In general, inhibition refers to the share of the control response that was lost under treatment. For orientation: IC50 means the concentration that gives 50% inhibition.

The species named for assay [1] is Homo sapiens. Put plainly: Inhibition of TrxR (unknown origin) at 5 uM by […]-reagent based assay relative to control.
The test system of assay [2] is MCF7. In words: Antiproliferative activity against human MCF7 cells assessed as reduction in cell growth after 72 hrs by MTT assay. Type of assay: functional, cell-based. The note with it: MCF7, 72 h.
Assay [3] relates to HepG2. In words: Antiproliferative activity against human HepG2 cells assessed as reduction in cell growth after 72 hrs by MTT assay. Type of assay: functional, cell-based. The settings on record: HepG2, 72 h.
Assay [4] is described as follows: Inhibition of TrxR (unknown origin) by […]-reagent based assay. Also noted: species or system Homo sapiens.
A short description of assay [5]: Inhibition of TrxR (unknown origin). More on the design: species or system Homo sapiens.
Assay [6] in a line: Inhibition of TrxR in human SGC-7901 cells. Type of assay: cell-based.
For assay [7], the system named is HepG2. In words: Induction of intracellular ROS generation in human HepG2 cells assessed as increase in green fluorescence at 6.25 to 12.5 uM incubated for 6 hrs by DCFH-DA probe based fluorescence microscopic analysis. It is filed as functional, cell-based. The note with it: dose 6.25-12.5 µM.
For assay [8], the system named is HepG2. In words: Inhibition of TrxR in human HepG2 cells incubated for 24 hrs by immunofluorescence assay. Type of assay: cell-based. The settings on record: dose 12.5-50 µM.
The subject of assay [9] is HepG2. Put plainly: Induction of apoptosis in human HepG2 cells assessed as viable cells at 12.5 uM incubated for 24 hrs by Annexin V/PI staining based flow cytometry analysis (reference value: 94.9%). It is filed as functional. The settings on record: read-out: Activity.
Assay [10] has as its system HepG2. Put plainly: Induction of apoptosis in human HepG2 cells assessed as late apoptotic cells incubated for 24 hrs by Annexin V/PI staining based flow cytometry analysis. Type of assay: functional, cell-based. The note with it: dose 12.5-50 µM. (In general: A flow cytometer gives signals particle by particle.)
In assay [11] the test system is HepG2. In words: Induction of apoptosis in human HepG2 cells assessed as viable cells at 50 uM incubated for 24 hrs by Annexin V/PI staining based flow cytometry analysis (reference value: 94.9%). The settings on record: read-out: Activity. It is filed as functional.
For assay [12], the species on record is Homo sapiens. Put plainly: Inhibition of TrxR (unknown origin) at 8 uM by […]-reagent based assay relative to control.
Assay [13] has as its system HepG2. In words: Induction of apoptosis in human HepG2 cells assessed as early apoptotic cells at 12.5 uM incubated for 24 hrs by Annexin V/PI staining based flow cytometry analysis (reference value: 3.64%). Type of assay: functional.
Assay [14] has as its system HepG2. In words: Inhibition of TrxR in human HepG2 cells assessed as decrease in green fluorescence at 12.5 to 50 uM incubated for 24 hrs by immunofluorescence assay. Type of assay: cell-based. The note with it: dose 12.5-50 µM.
Assay [15] relates to HepG2. Put plainly: Induction of apoptosis in human HepG2 cells assessed as viable cells at 25 uM incubated for 24 hrs by Annexin V/PI staining based flow cytometry analysis (reference value: 94.9%). Type of assay: functional. The settings on record: read-out: Activity.
Assay [16] concerns HepG2. Put plainly: Induction of apoptosis in human HepG2 cells assessed as necrotic cells at 12.5 uM incubated for 24 hrs by Annexin V/PI staining based flow cytometry analysis (reference value: 0.21%). It is filed as functional.
The subject of assay [17] is HepG2. In words: Induction of apoptosis in human HepG2 cells assessed as necrotic cells at 25 uM incubated for 24 hrs by Annexin V/PI staining based flow cytometry analysis (reference value: 0.21%). Type of assay: functional.
The subject of assay [18] is HepG2. Put plainly: Induction of apoptosis in human HepG2 cells assessed as early apoptotic cells at 50 uM incubated for 24 hrs by Annexin V/PI staining based flow cytometry analysis (reference value: 3.64%). Type of assay: functional.
Assay [19] has as its system HepG2. Put plainly: Induction of apoptosis in human HepG2 cells assessed as late apoptotic cells at 25 uM incubated for 24 hrs by Annexin V/PI staining based flow cytometry analysis (reference value: 1.30%). It is filed as functional.
Assay [20] relates to HepG2. Put plainly: Induction of apoptosis in human HepG2 cells assessed as early apoptotic cells at 25 uM incubated for 24 hrs by Annexin V/PI staining based flow cytometry analysis (reference value: 3.64%). It is filed as functional.
Assay [21] relates to HepG2. Put plainly: Induction of apoptosis in human HepG2 cells assessed as late apoptotic cells at 50 uM incubated for 24 hrs by Annexin V/PI staining based flow cytometry analysis (reference value: 1.30%). Type of assay: functional.
Assay [22] relates to HepG2. Put plainly: Induction of intracellular ROS generation in human HepG2 cells at 6.25 uM incubated for 3 to 12 hrs by DCFH-DA probe based fluorescence microscopic analysis. It is filed as functional, cell-based. The settings on record: time 3-12 hrs.
Assay [23] deals with HepG2. Put plainly: Induction of intracellular ROS generation in human HepG2 cells assessed as increase in red fluorescence at 6.25 to 12.5 uM incubated for 6 hrs by DHE probe based fluorescence microscopic analysis. Type of assay: functional, cell-based. The settings on record: dose 6.25-12.5 µM.
For assay [24], the system named is HepG2. In words: Induction of apoptosis in human HepG2 cells assessed as necrotic cells at 50 uM incubated for 24 hrs by Annexin V/PI staining based flow cytometry analysis (reference value: 0.21%). It is filed as functional.
Assay [25] has as its system HepG2. In words: Induction of apoptosis in human HepG2 cells assessed as early apoptotic cells incubated for 24 hrs by Annexin V/PI staining based flow cytometry analysis. Type of assay: functional, cell-based. The settings on record: dose 12.5-50 µM.
The subject of assay [26] is HepG2. In words: Induction of apoptosis in human HepG2 cells assessed as late apoptotic cells at 12.5 uM incubated for 24 hrs by Annexin V/PI staining based flow cytometry analysis (reference value: 1.30%). It is filed as functional.

Activity calls are given as the source filed them. No cut-off for these calls is given here.

In turn, `Cc1ccc([C@@]2(O)CCC[C@@]3(C)CC4=C(C[C@H]32)C(=O)C=CC4=O)cc1` returned an inhibition in assay [1] of 11.8%. For the same molecule, the IC50 in assay [2] is 36.9 µM; in [3] it was above 100 µM.

In the case of `C=C1C(=O)O[C@H]2[C@H]1CCC(C)=C1CC[C@@](C)(O)[C@@H]12` [MICHELIOLIDE], the IC50 in assay [4] worked out at 6.23 µM; in [2] it was 23.4 µM; in [5], 6.23 µM; in assay [3] it was 10.9 µM. Besides, in assay [1], the inhibition came to 34.2%.

Regarding `CCc1ccc([C@@]2(O)CCC[C@@]3(C)CC4=C(C[C@H]32)C(=O)C=CC4=O)cc1`, in assay [1], the inhibition was 19.6%. Further, the figures for the IC50 in assay [2] and in assay [3] were 19.6 µM and 46.5 µM, respectively.

`C[C@@]12CCC[C@](O)(c3ccoc3)[C@@H]1CC1=C(C2)C(=O)C=CC1=O`: the concentration for half-maximal inhibition (IC50) in [2] and in [3] was above 100 µM throughout.

Take `C[C@H]1CO[C@H]2C3=C(C(=O)C=CC3=O)[C@@H]3OC(=O)[C@H]4CC[C@@H]5[C@H]1CC[C@@]52[C@@H]43`: the IC50 in [2] was above 100 µM; in assay [5] it was 0.17 µM; in [3], 55 µM.

In [1], `C[C@@]12CCC[C@@H](CO)[C@@H]1CC1=C(C2)C(=O)C=CC1=O` returned an inhibition of 13.7%. The IC50 in [2] is 43.7 µM; in assay [3], 71.7 µM.

As for `COc1ccccc1/C=C/C(=O)/C=C/c1ccccc1OC`, the IC50 in assay [6] was around 50 µM.

In the case of `C[C@@]12CCC[C@](O)(c3ccc(C(F)(F)F)cc3)[C@@H]1CC1=C(C2)C(=O)C=CC1=O`, the inhibition in assay [1] stood at 15.7%. For the same molecule, the IC50 in assay [2] was found to be 13.6 µM; in assay [3], 69.5 µM.

On to `C=CC(=O)O[C@@H]1C2=C(C[C@]3(C)CCCC(=O)[C@H]13)C(=O)C=CC2=O`, for which the IC50 in assay [2] and in assay [3] was above 100 µM in each case.

`C[C@@]12CCC[C@@H](C(=O)O)[C@@H]1CC1=C(C2)C(=O)C=CC1=O` showed an inhibition in [1] of 21.6%. In addition, the IC50 in assay [2] is 43.3 µM; in assay [3], 27.8 µM.

In assay [1], `C=C1CCC[C@@]2(C)CC3=C(C[C@@H]12)C(=O)C=CC3=O` [CORDIACHROME B] gave an inhibition of 19.6%. The IC50 was 59.3 µM in [2] and above 100 µM in assay [3].

With `C[C@@]12CCCC(=O)[C@@H]1[C@H](O)C1=C(C2)C(=O)C=CC1=O`, the inhibition in assay [1] came out at 60.4%. The values for the IC50 in assay [2] and in [3] were 32.4 µM and 48.5 µM, respectively.

In the case of `C=CC(=O)O[C@@H]1CCC[C@@]2(C)CC3=C(C[C@@H]12)C(=O)C=CC3=O`, the inhibition in assay [1] was 19.7%. For the same molecule, the results for the IC50 in assay [2] and in assay [3] were 16.4 µM and 59.6 µM, respectively.

With `C[C@@]12CCC[C@](O)(c3ccc(C#N)cc3)[C@@H]1CC1=C(C2)C(=O)C=CC1=O`, the IC50 turned out to be 3.5 µM in [4], 28.2 µM in assay [2] and 19.4 µM in assay [3]. The outcome in assay [7], in assay [22] and in assay [23] was Active. For the same molecule, the inhibition result is “Dose-dependent-effect” in assay [8], 71.9% in [1] and 100% in assay [12]. In addition, the viability at 12.5 µM in assay [9] amounted to 92.2%. For the same molecule, the Activity entry was “Dose-dependent-effect” in [10]; 5.54% in [13]; 0.3% in assay [16]; 1.39% in [17]; 22.7% in [18]; 3.39% in assay [19]. Besides, the Activity in assay [20] is 13.9%; in assay [21] it was 12.6%; in [24], 10.7%; in [25], “Dose-dependent-effect”; in [26] it was 1.82%. In addition, the viability at 50 µM in assay [11] was found to be 54%. Also, the inhibition entry in assay [14] is “Active”. For the same molecule, the viability at 25 µM in [15] came to 81.3%.

With `COc1ccc([C@@]2(O)CCC[C@@]3(C)CC4=C(C[C@H]32)C(=O)C=CC4=O)cc1`, the inhibition in assay [1] amounted to 9.8%. Further, the IC50 in assay [2] is 17.4 µM; in assay [3], above 100 µM.

As for `C[C@@]12CCC[C@@H](O)[C@@H]1CC1=C(C2)C(=O)C=CC1=O`, the inhibition in [1] came out at 34.9%. Also, the IC50 is 15.6 µM in assay [2] and 36.6 µM in [3].

For `C[C@@]12CCC[C@](O)(c3ccccn3)[C@@H]1CC1=C(C2)C(=O)C=CC1=O`, the inhibition in [1] came out at 23.5%. Also, the IC50 in assay [2] was determined as 28.8 µM; in assay [3] it was 45.3 µM.

`C[C@@]12CCCC(=O)[C@@H]1CC1=C(C2)C(=O)C=CC1=O` returned an inhibition in [1] of 18.5%. In addition, the figures for the IC50 in [2] and in assay [3] were 30.7 µM and 62.6 µM, respectively.

In [1], `C[C@@]12CCC[C@](O)(c3ccccc3)[C@@H]1CC1=C(C2)C(=O)C=CC1=O` registered an inhibition of 19.6%. Besides, the concentration for half-maximal inhibition (IC50) was determined as 24.2 µM in assay [2] and 34 µM in assay [3].
